From patent US20110053804A1, “Gene Signatures for the Prognosis of Cancer” (SLOAN-KETTERING INSTITUTE FOR CANCER RESEARCH, priority 2008, published 2011)

Key:
Format in all cases: in vivo, mice
[1] = tested on: LM2 cells; test: Lung colonization (priming) assay, tail vein injection of TGFβ-pretreated LM2 cells
Procedure: (§1) FIGS. 3A-D. (A) LM2 cells and a clinically-derived pleural effusion sample (CN34.2A) were pretreated with TGFβ for 6 h. LM2 (2×10^5) and CN34.2A (4×10^5) cells were injected into the lateral tail vein and lung colonization was analyzed by in vivo bioluminescence imaging. (B) Bar graph represents 24 h time point measurements of the normalized photon flux from animals injected with either LM2 or CN34.2A cells. (C) Bone metastasis assays were performed by intracardiac injection of LM2 or BoM-1833 cells (3×10^4). Samples were pretreated with […] of TGFβ for 6 h and compared to an untreated control. […]
(§2) All animal work was done in accordance with a protocol approved by the MSKCC Institutional Animal Care and Use Committee. […] Seven days after mastectomies, lung metastases were monitored and quantified using non-invasive bioluminescence as previously described (Minn et al., 2005).
(§3) For primary tumor analysis, 5×10^5 viable single cells were re-suspended in a 1:1 mixture of PBS and growth-factor-reduced Matrigel (BD Biosciences) and injected orthotopically into both mammary gland number four in a total volume of 100 μL as previously described (Minn et al., 2005). Primary tumor growth rates were analyzed by measuring tumour length (L) and width (W), and calculating tumor volume based on the formula […]. […] Lung metastatic progression was again monitored and quantified using bioluminescence. […]

[2] = tested on: CN34.2A cells; test: Lung colonization (priming) assay, tail vein injection of TGFβ-pretreated CN34.2A cells; details: CN34.2A cells pre-treated with TGFβ 6 h; 24 h time point, normalized photon flux
Procedure: as §1, §2, §3

[3] = tested on: LM2 cells; test: Bone metastasis assay, intracardiac injection of TGFβ-pretreated LM2 cells; details: LM2 cells pre-treated with TGFβ prior to inoculation into the arterial circulation
Procedure: (§4) FIGS. 3A-D. (A) LM2 cells and a clinically-derived pleural effusion sample (CN34.2A) were pretreated with TGFβ for 6 h. LM2 (2×10^5) and CN34.2A (4×10^5) cells were injected into the lateral tail vein and lung colonization was analyzed by in vivo bioluminescence imaging. (B) Bar graph represents 24 h time point measurements of the normalized photon flux from animals injected with either LM2 or CN34.2A cells. (C) Bone metastasis assays were performed by intracardiac injection of LM2 or BoM-1833 cells (3×10^4). Samples were pretreated with […] of TGFβ for 6 h and compared to an untreated control. (D) Bar graphs represent seven-day time point analysis of the normalized photon flux from the mouse hind limbs.
(§5) To investigate the selectivity of this lung metastasis-priming effect, we tested the effect of TGFβ pre-incubation on the establishment of bone metastases. […]
as §3

[4] = tested on: BoM-1833 cells; test: Bone metastasis assay, intracardiac injection of TGFβ-pretreated BoM-1833 cells; details: BoM-1833 cells pre-incubated with TGFβ
Procedure: as §4, §5, §3

Substance: TGFβ: cytokine transforming growth factor beta; TGFβ1 (R&D Systems) used to treat cells for 3 or 6 h
- lung colonizing activity (retention of cells in the lungs) ([1]; LM2 cells incubated with TGFβ for 6 h prior to tail vein inoculation, 24 h after inoculation, bioluminescence): significantly increased
- increase of lung seeding activity ([1]; LM2 cells pre-treated with TGFβ 6 h, 24 h time point, normalized photon flux): three
- increase of lung seeding activity [2]: five
- ability to form bone metastases [3]: did not increase
- ability to form bone metastases [4]: did not increase
- early seeding of the bones ([4]; seven-day time point, hind limbs): no discernible effect
